Earlier results, collected in patent US10934346B2, “Modified T cell comprising a polynucleotide encoding an inducible stimulating molecule comprising MyD88, CD40 and FKBP12” (priority 2014, dated 2021).

System: CD40-dependent signaling cascades
Settings: mouse, in vivo; cited from earlier work

SMILES: CC[C@H](C(=O)N1CCCC[C@H]1C(=O)O[C@H](CCc1ccc(OC)c(OC)c1)c1cccc(OCC(=O)NCC(CNC(=O)COc2cccc([C@@H](CCc3ccc(OC)c(OC)c3)OC(=O)[C@@H]3CCCCN3C(=O)[C@@H](CC)c3cc(OC)c(OC)c(OC)c3)c2)CN(C)C)c1)c1cc(OC)c(OC)c(OC)c1 [AP20187]
- induction of signaling in DCs: led to the in vivo induction of CD40-dependent signaling cascades in murine DCs
